Measurements from ChEMBL document CHEMBL2062475, “Langkolide, a 32-membered macrolactone antibiotic produced by Streptomyces sp. Acta 3062” (J Nat Prod, 2012).
Active and inactive are the calls of the source. The calls are words filed in the database; no cut-off is given here.

Key:
[1] = system: Bacillus subtilis; assay: Antibacterial activity against Bacillus subtilis DSM 347 after 14 to 16 hrs by resazurin reduction assay; format: functional, organism-based
[2] = system: HT-29; assay: Cytotoxicity against human HT-29 cells after 24 hrs by CellTiter-Blue assay; format: functional, cell-based; conditions: HT-29, 24 h
[3] = target: 3',5'-cyclic-AMP phosphodiesterase 4B (Homo sapiens, UniProt Q07343); assay: Inhibition of human recombinant PDE4B2 by HTS cAMP assay
[4] = system: HepG2; assay: Cytotoxicity against human HepG2 cells after 24 hrs by CellTiter-Blue assay; format: functional, cell-based; conditions: HepG2, 24 h
[5] = system: Nakaseomyces glabratus; assay: Antifungal activity against Candida glabrata DSM 6425 after 14 to 16 hrs by resazurin reduction assay; format: functional, organism-based
[6] = system: Candida albicans; assay: Antifungal activity against Candida albicans DSM 1386 after 14 to 16 hrs by resazurin reduction assay; format: functional, organism-based
[7] = system: Xanthomonas campestris; assay: Antibacterial activity against Xanthomonas campestris DSM 2405 after 14 to 16 hrs by resazurin reduction assay; format: functional, organism-based
[8] = system: NIH3T3; assay: Cytotoxicity against mouse NIH/3T3 cells after 24 hrs by CellTiter-Blue assay; format: functional, cell-based; conditions: NIH3T3, 24 h
[9] = system: Mammaliicoccus lentus; assay: Antibacterial activity against Staphylococcus lentus DSM 6672 after 14 to 16 hrs by resazurin reduction assay; format: functional, organism-based
[10] = system: Cutibacterium acnes; assay: Antibacterial activity against Propionibacterium acnes DSM 1897 after 48 hrs by resazurin reduction assay; format: functional, organism-based
[11] = target: Glycogen synthase kinase-3 beta (Homo sapiens, UniProt P49841); assay: Inhibition of recombinant GSK3beta by KinaseGlo assay
Chain of Glycogen synthase kinase-3 beta (P49841 whole entry): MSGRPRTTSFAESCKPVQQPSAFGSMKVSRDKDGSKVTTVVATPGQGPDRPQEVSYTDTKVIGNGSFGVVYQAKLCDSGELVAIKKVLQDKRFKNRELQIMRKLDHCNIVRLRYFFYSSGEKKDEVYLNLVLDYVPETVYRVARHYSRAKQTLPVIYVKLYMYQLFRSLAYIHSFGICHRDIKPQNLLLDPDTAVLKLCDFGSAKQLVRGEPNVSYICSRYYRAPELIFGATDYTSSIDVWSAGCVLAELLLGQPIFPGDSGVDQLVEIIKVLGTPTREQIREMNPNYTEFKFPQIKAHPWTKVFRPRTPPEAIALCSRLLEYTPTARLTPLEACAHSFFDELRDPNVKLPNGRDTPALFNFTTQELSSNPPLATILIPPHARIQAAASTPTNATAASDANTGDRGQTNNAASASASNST

Chain of 3',5'-cyclic-AMP phosphodiesterase 4B (Q07343 whole entry): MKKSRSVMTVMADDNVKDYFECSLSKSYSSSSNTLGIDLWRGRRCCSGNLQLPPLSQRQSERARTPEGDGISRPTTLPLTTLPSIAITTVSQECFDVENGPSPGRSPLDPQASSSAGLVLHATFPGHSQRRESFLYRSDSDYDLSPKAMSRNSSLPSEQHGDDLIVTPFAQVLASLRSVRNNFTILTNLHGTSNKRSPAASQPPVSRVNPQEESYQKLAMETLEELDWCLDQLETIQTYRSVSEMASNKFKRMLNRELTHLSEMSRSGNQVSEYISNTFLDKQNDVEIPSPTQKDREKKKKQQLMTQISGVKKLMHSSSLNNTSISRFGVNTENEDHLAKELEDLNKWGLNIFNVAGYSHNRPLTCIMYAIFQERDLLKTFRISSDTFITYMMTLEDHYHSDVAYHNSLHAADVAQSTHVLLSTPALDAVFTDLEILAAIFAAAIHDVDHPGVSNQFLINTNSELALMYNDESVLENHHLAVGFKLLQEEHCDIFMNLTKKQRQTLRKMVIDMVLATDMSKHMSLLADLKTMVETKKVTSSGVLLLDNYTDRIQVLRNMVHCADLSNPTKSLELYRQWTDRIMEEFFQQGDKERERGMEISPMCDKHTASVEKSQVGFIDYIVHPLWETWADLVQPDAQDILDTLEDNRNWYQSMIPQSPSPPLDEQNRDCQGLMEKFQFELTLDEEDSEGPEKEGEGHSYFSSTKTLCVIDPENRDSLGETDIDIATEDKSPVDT

CC(=O)O[C@H]1C[C@@H](O)C[C@H](O)C[C@@H](O)[C@@H]2O[C@H]2[C@@H](C)[C@@H]([C@@H](C)[C@@H](O)[C@H](C)[C@@H](O)[C@@H](C)[C@@H](C)O[C@H]2CC[C@H](O[C@@H]3CC[C@@H](OC(=O)[C@H](C)[C@@H](O)/C(C)=C/c4ccc5c(c4)C(=O)C=CC5=O)[C@H](C)O3)[C@H](C)O2)OC(=O)/C=C/[C@H](C)[C@@H](O)C[C@H](O)/C=C/CC[C@@H](C)[C@@H](O)[C@H](O)[C@@]2(O)O[C@@H](C1)C[C@@H](O)[C@@H]2O [LANGKOLIDE]
Activity [1]: inactive
IC50 [2]: 1380 nM
IC50 [3]: 480 nM
IC50 [4]: 2410 nM
IC50 [5]: 1000 nM
IC50 [6]: 1230 nM
Activity [7]: inactive
IC50 [8]: 490 nM
Activity [9]: inactive
Activity [10]: inactive
IC50 [11]: 2170 nM
